Data taken from patent publication US20250311722A1, “IMPROVED BIOCIDE” (Purgos ApS, priority 2022, published 2025).
“And” between values parts separate entries of the source, which are not always exact repeats. Identical values can stand only once.

Assays:
Test in all cases: Minimum bactericidal concentration (MBC)
Type in all cases: cell-based
[1] = tested on: Aspergillus niger ISI 3
Description: (§1) Even when no growth is detectable in the MIC tests, it is possible that the microorganisms have survived the treatment i.e., they are not killed but just prevented from growing. In order to test for survivors, MBC plates were subsequently made from the MIC plates.

[2] = tested on: Lactobacillus brevis ISI 2269; parameters: MBC data (outgrowth): unit not given here
Description: as §1

[3] = tested on: Listeria monocytogenes ISI 22; parameters: MBC data (outgrowth): unit not given here
Description: as §1

[4] = tested on: Bacillus cereus ISI 842; parameters: MBC data (outgrowth): unit not given here
Description: as §1

[5] = tested on: Streptococcus termophilus ISI 1563; parameters: MBC data (outgrowth): unit not given here
Description: as §1

[6] = tested on: Pseudomonas aeruginosa ISI 1462; parameters: MBC data (outgrowth): unit not given here
Description: as §1

[7] = tested on: Leuconostoc mesenteroides ISI 504; parameters: MBC data (outgrowth): unit not given here
Description: as §1

[8] = tested on: Debaryomyces hansenii ISI 12; parameters: MBC data (outgrowth): unit not given here
Description: as §1

[9] = tested on: Salmonella Infantis ISI 170; parameters: MBC data (outgrowth): unit not given here
Description: as §1

[10] = tested on: Candida albicans ISI 1226; parameters: MBC data (outgrowth): unit not given here
Description: as §1

## CCCCN(CCO)CCO [NBDA, N-butyldiethanolamine]
[1]
  MBC (%): 0.63%
[2]
  MBC (%): 0.31%
[2]; 0.02% NBDA
  MBC data (outgrowth): 0.446 and 0.463
[2]; 0.04% NBDA
  MBC data (outgrowth): 0.439 and 0.455
[2]; 0.08% NBDA
  MBC data (outgrowth): 0.447 and 0.470
[2]; 0.16% NBDA
  MBC data (outgrowth): 0.755 and 1.060
[2]; 0.31% NBDA
  MBC data (outgrowth): 0.078 and 0.077
[2]; 0.63% NBDA
  MBC data (outgrowth): 0.208 and 0.248
[2]; 1.25% NBDA
  MBC data (outgrowth): 0.077
[2]; 2.50% NBDA
  MBC data (outgrowth): 0.075 and 0.077
[2]; 5.00% NBDA
  MBC data (outgrowth): 0.067 and 0.068
[3]
  MBC (%): 2.5%
[3]; 0.02% NBDA
  MBC data (outgrowth): 1.197 and 1.009
[3]; 0.04% NBDA
  MBC data (outgrowth): 1.195 and 1.097
[3]; 0.08% NBDA
  MBC data (outgrowth): 1.201 and 1.059
[3]; 0.16% NBDA
  MBC data (outgrowth): 1.216 and 1.141
[3]; 0.31% NBDA
  MBC data (outgrowth): 1.320 and 1.310
[3]; 0.63% NBDA
  MBC data (outgrowth): 1.496 and 1.507
[3]; 1.25% NBDA
  MBC data (outgrowth): 1.517 and 1.533
[3]; 2.50% NBDA
  MBC data (outgrowth): 0.065 and 0.070
[3]; 5.00% NBDA
  MBC data (outgrowth): 0.060 and 0.062
[4]
  MBC (%): 1.25%
[4]; 0.02% NBDA
  MBC data (outgrowth): 1.261 and 1.253
[4]; 0.04% NBDA
  MBC data (outgrowth): 1.106 and 1.352
[4]; 0.08% NBDA
  MBC data (outgrowth): 1.098 and 1.118
[4]; 0.16% NBDA
  MBC data (outgrowth): 1.286 and 1.086
[4]; 0.31% NBDA
  MBC data (outgrowth): 1.277 and 1.161
[4]; 0.63% NBDA
  MBC data (outgrowth): 1.117 and 1.001
[4]; 1.25% NBDA
  MBC data (outgrowth): 0.075 and 0.076
[4]; 2.50% NBDA
  MBC data (outgrowth): 0.072 and 0.078
[4]; 5.00% NBDA
  MBC data (outgrowth): 0.066
[5]
  MBC (%): 1.25%
[5]; 0.02% NBDA
  MBC data (outgrowth): 0.346 and 0.323
[5]; 0.04% NBDA
  MBC data (outgrowth): 0.307 and 0.283
[5]; 0.08% NBDA
  MBC data (outgrowth): 0.311 and 0.304
[5]; 0.16% NBDA
  MBC data (outgrowth): 0.251 and 0.232
[5]; 0.31% NBDA
  MBC data (outgrowth): 0.802 and 0.522
[5]; 0.63% NBDA
  MBC data (outgrowth): 0.277 and 0.427
[5]; 1.25% NBDA
  MBC data (outgrowth): 0.072
[5]; 2.50% NBDA
  MBC data (outgrowth): 0.070 and 0.068
[5]; 5.00% NBDA
  MBC data (outgrowth): 0.062 and 0.058
[6]
  MBC (%): 1.25%
[6]; 0.02% NBDA
  MBC data (outgrowth): 1.360 and 2.248
[6]; 0.04% NBDA
  MBC data (outgrowth): 2.186 and 1.311
[6]; 0.08% NBDA
  MBC data (outgrowth): 1.779 and 2.051
[6]; 0.16% NBDA
  MBC data (outgrowth): 1.680 and 2.303
[6]; 0.31% NBDA
  MBC data (outgrowth): 1.477 and 1.570
[6]; 0.63% NBDA
  MBC data (outgrowth): 1.909 and 1.789
[6]; 1.25% NBDA
  MBC data (outgrowth): 0.071 and 0.070
[6]; 2.50% NBDA
  MBC data (outgrowth): 0.071 and 0.069
[6]; 5.00% NBDA
  MBC data (outgrowth): 0.066 and 0.061
[7]
  MBC (%): 0.63%
[7]; 0.02% NBDA
  MBC data (outgrowth): 1.449 and 1.467
[7]; 0.04% NBDA
  MBC data (outgrowth): 1.449 and 1.468
[7]; 0.08% NBDA
  MBC data (outgrowth): 1.413 and 1.467
[7]; 0.16% NBDA
  MBC data (outgrowth): 1.337 and 1.425
[7]; 0.31% NBDA
  MBC data (outgrowth): 1.452 and 1.448
[7]; 1.25% NBDA
  MBC data (outgrowth): 0.075
[7]; 2.50% NBDA
  MBC data (outgrowth): 0.076 and 0.077
[7]; 5.00% NBDA
  MBC data (outgrowth): 0.066 and 0.067
[8]
  MBC (%): 2.5%
[8]; 0.02% NBDA
  MBC data (outgrowth): 1.491 and 1.495
[8]; 0.04% NBDA
  MBC data (outgrowth): 1.493 and 1.461
[8]; 0.08% NBDA
  MBC data (outgrowth): 1.472
[8]; 0.16% NBDA
  MBC data (outgrowth): 1.473 and 1.469
[8]; 0.31% NBDA
  MBC data (outgrowth): 1.432 and 1.393
[8]; 0.63% NBDA
  MBC data (outgrowth): 1.387 and 1.458
[8]; 1.25% NBDA
  MBC data (outgrowth): 1.333 and 1.309
[8]; 2.50% NBDA
  MBC data (outgrowth): 0.074
[8]; 5.00% NBDA
  MBC data (outgrowth): 0.068 and 0.069
[9]
  MBC (%): 1.25%
[9]; 0.02% NBDA
  MBC data (outgrowth): 1.732 and 1.806
[9]; 0.04% NBDA
  MBC data (outgrowth): 1.858 and 1.853
[9]; 0.08% NBDA
  MBC data (outgrowth): 1.841 and 1.791
[9]; 0.16% NBDA
  MBC data (outgrowth): 1.826 and 1.827
[9]; 0.31% NBDA
  MBC data (outgrowth): 1.786 and 1.488
[9]; 0.63% NBDA
  MBC data (outgrowth): 1.806 and 1.787
[9]; 1.25% NBDA
  MBC data (outgrowth): 0.074 and 0.071
[9]; 2.50% NBDA
  MBC data (outgrowth): 0.068 and 0.070
[9]; 5.00% NBDA
  MBC data (outgrowth): 0.066 and 0.060
[10]
  MBC (%): 1.25%
[10]; 0.02% NBDA
  MBC data (outgrowth): 1.332 and 1.357
[10]; 0.04% NBDA
  MBC data (outgrowth): 1.291 and 1.314
[10]; 0.08% NBDA
  MBC data (outgrowth): 1.278 and 1.314
[10]; 0.16% NBDA
  MBC data (outgrowth): 1.171 and 1.485
[10]; 0.31% NBDA
  MBC data (outgrowth): 1.168 and 1.175
[10]; 1.25% NBDA
  MBC data (outgrowth): 0.079 and 0.080
[10]; 2.50% NBDA
  MBC data (outgrowth): 0.074 and 0.075
[10]; 5.00% NBDA
  MBC data (outgrowth): 0.068
